According to US20050282888A1, “Fungicidal composition” (Sumitomo Chemical Company, Limited, priority 2004, published 2005):

Each compound was assayed on Plasmopara viticola (assay: Test Example 1: spray test on grape seedlings inoculated with Plasmopara viticola (protective value)). Conditions: Plasmopara viticola, 168 h, single active ingredient, wettable powder sprayed on grape seedlings before inoculation, assessed after one night plus 7 days, read-out: Actual protective value.
Assay type: in vivo, Plasmopara viticola on grape (variety: Berry A)
Protocol: Next, it is shown that the present invention compositions have an excellent controlling activity against plant diseases as test example. Generally, an expected controlling value, when two active ingredient compounds are mixed and applied, can be calculated by the Colby's formula described below. E=X+Y−(X×Y)/100 • X: protective value (%) when treatment is carried out by using an active ingredient compound A at the concentration of m ppm. • Y: protective value (%) when treatment is carried out by using an active ingredient compound B at the concentration of n ppm • E: protective value (%) when treatment is carried out by using the active ingredient compound A at the concentration of m ppm and the active ingredient compound B at the concentration of n ppm (hereinafter referred to as “expected protective value”) And, generally speaking, if actual protective value (%) when treatment is carried out by actually mixing two kinds of active ingredient compounds is not less than the expected protective value (%), it can be said that there is a mixing effect.
Sandy loam soil was compacted in a plastic pot, and a grape (variety: Berry A) was seeded and grown in a green house for 40 days. The test drug formulated to wettable powder according to Formulation Example 5, then, diluted with water to provide prescribed concentration, and these diluted solutions were sprayed onto stems and leaves so as to give sufficient adhesion on the surface of grape leaves. After that, a suspension of zoosporangia of Plasmopara viticola was inoculated by spraying to stems and leaves of the grape seedling. After inoculation, the grape seedling was first grown for one night at 23° C. under humid, then further grown for 7 days in the green house. Then, the ratio of diseased area (%) of Plasmopara viticola on stems and leaves of the grape seedling was investigated and the actual protective value was obtained according to the formula described below form the investigated result. protective value (%)={[the ratio of diseased area of non treated plant (%)−the ratio of diseased area of treated plant (%)/]/[the ratio of diseased area of non treated plant (%)]}×100

SMILES | pest or weed control at 50 ppm
C#CCOc1ccc(CCC(=O)NC(C#N)c2ccc(Br)cc2)cc1OC (stereo not drawn) [(I-20), N-{1-(4-bromophenyl)-1-cyanomethyl}-3-(3-methoxy-4-(2-propynyloxy)phenyl}propanamide] | 100%
C#CCOc1ccc(CCC(=S)NCc2ccc3ccccc3c2)cc1OC [(I-29), N-{(naphthalene-2-yl)methyl}-3-{3-methoxy-4-(2-propynyloxy)phenyl)propanthioamide] | 100%
CCOc1ccc(CCC(=O)NC(C#N)c2ccc(Cl)cc2)cc1OC (stereo not drawn) [(I-17), N-{1-(4-chlorophenyl)-1-cyanomethyl)-3-(3-methoxy-4-ethoxyphenyl)propanamide] | 100%
C#CCOc1ccc(CCC(=O)NC(C#N)c2ccc(C)cc2)cc1OC (stereo not drawn) [(I-6), N-{1-(4-methylphenyl)-1-cyanomethyl)-3-(3-methoxy-4-(2-propynyloxy)phenyl}propanamide] | 100%
C#CCOc1ccc(CCC(=S)NCc2ccc(Cl)cc2)cc1OCC [(I-15), N-(4-chlorobenzyl)-3-(3-ethoxy-4-(2-propynyloxy)phenyl)prop anthioamide] | 100%
CCOc1ccc(CCC(=O)NC(C#N)c2ccc(C)cc2)cc1OC (stereo not drawn) [(I-7), N-{1-(4-methylphenyl)-1-cyanomethyl}-3-(3-methoxy-4-ethoxyphenyl)propanamide] | 100%
C#CCOc1ccc(CCC(=O)NC(C#N)c2ccc(CC)cc2)cc1OC (stereo not drawn) [(I-9), N-{1-(4-ethylphenyl)-1-cyanomethyl)-3-(3-methoxy-4-(2-propynyloxy)phenyl)propanamide] | 100%
C#CCOc1ccc(CCC(=S)NCc2ccc(C)cc2)cc1OC [(I-3), N-(4-methylbenzyl)-3-(3-methoxy-4-(2-propynyloxy)phenyl}pro panthioamide] | 100%
C#CCOc1ccc(CCC(=O)NCc2ccc3c(c2)CCC3)cc1OC [(I-22), N-{(indan-5-yl)methyl}-3-{3-methoxy-4-(2-propynyloxy)phenyl}propanamide] | 100%
C#CCOc1ccc(CCC(=O)NC(C#N)c2ccc3c(c2)CCC3)cc1OC (stereo not drawn) [(I-24), N-{1-(indan-5-yl)-1-cyanomethyl}-3-{3-methoxy-4-(2-propynyloxy)phenyl}propanamide] | 100%
C#CCOc1ccc(CCC(=O)NCc2ccc3ccccc3c2)cc1OC [(I-28), N-{(naphthalene-2-yl)methyl}-3-{3-methoxy-4-(2-propynyloxy)phenyl}propanamide] | 100%
C#CCOc1ccc(CCC(=O)NCc2ccc(Cl)c(Cl)c2)cc1OC [(I-11), N-(3,4-dichlorobenzyl)-3-{3-methoxy-4-(2-propynyloxy)phenyl}propanamide] | 100%
C#CCOc1ccc(CCC(=O)NCc2ccc3c(c2)CCCC3)cc1OC [(I-25), N-((5,6,7,8-tetrahydronaphthalene-2-yl)methyl)-3-(3-methoxy-4-(2-propynyloxy)phenyl)propanamide] | 100%
C#CCOc1ccc(CCC(=S)NCc2ccc(Br)cc2)cc1OC [(I-19), N-(4-bromobenzyl)-3-{3-methoxy-4-(2-propynyloxy)phenyl)prop anthioamide] | 100%
COc1ccc(C(=CC(=O)N2CCOCC2)c2ccc(Cl)cc2)cc1OC [dimethomorph, 4-[3-(4-chlorophenyl)-3-(3,4-dimethoxyphenyl)acryloyl]morph oline, reference compound] | 100%
C#CCOc1ccc(CCC(=S)NCc2ccc(C)c(C)c2)cc1OC [(I-4), N-(3,4-dimethylbenzyl)-3-{3-methoxy-4-(2-propynyloxy)phenyl}propanthioamide] | 100%
C#CCOc1ccc(CCC(=O)NCc2ccc(C)cc2)cc1OC [(I-1), N-(4-methylbenzyl)-3-{3-methoxy-4-(2-propynyloxy)phenyl}pro panamide] | 100%
C#CCOc1ccc(CCC(=S)NCc2ccc3c(c2)CCCC3)cc1OC [(I-26), N-(5,6,7,8-tetrahydronaphthalene-2-ylmethyl)-3-(3-methoxy-4-(2-propynyloxy)phenyl}propanthioamide] | 100%
C#CCOc1ccc(CCC(=O)NCc2ccc(Cl)cc2)cc1OC [(I-10), N-(4-chlorobenzyl)-3-(3-methoxy-4-(2-propynyloxy)phenyl}pro panamide] | 100%
C#CCOc1ccc(CCC(=O)NCc2ccc(CC)cc2)cc1OC [(I-8), N-(4-ethylbenzyl)-3-{3-methoxy-4-(2-propynyloxy)phenyl}prop anamide] | 100%
C#CCOc1ccc(CCC(=S)NCc2ccc3c(c2)CCC3)cc1OC [(I-23), N-(indan-5-ylmethyl)-3-(3-methoxy-4-(2-propynyloxy)phenyl)p ropanthioamide] | 100%
C#CCOc1ccc(CCC(=O)NC(C#N)c2ccccc2)cc1OC (stereo not drawn) [(I-5), N-(1-phenyl-1-cyanomethyl)-3-{3-methoxy-4-(2-propynyloxy)phenyl}propanamide] | 100%
C#CCOc1ccc(CCC(=S)NCc2ccc(Cl)c(Cl)c2)cc1OC [(I-14), N-(3,4-dichlorobenzyl)-3-{3-methoxy-4-(2-propynyloxy)phenyl}propanthioamide] | 100%
C#CCOc1ccc(CCC(=S)NCc2ccc(Cl)cc2)cc1OC [(I-13), N-(4-chlorobenzyl)-3-(3-methoxy-4-(2-propynyloxy)phenyl}pro panthioamide] | 100%
C#CCOc1ccc(CCC(=O)NC(C#N)c2ccc(Cl)cc2)cc1OC (stereo not drawn) [(I-16), N-{1-(4-chlorophenyl)-1-cyanomethyl}-3-{3-methoxy-4-(2-propynyloxy)phenyl}propanamide] | 100%

Same assay, conditions: single active ingredient, 50 ppm, wettable powder sprayed on grape seedlings before inoculation, assessed after one night plus 7 days

SMILES | Actual protective value
C#CCOc1ccc(CCC(=O)NCc2ccc(C)c(C)c2)cc1OC [(I-2)] | 100%
CCOc1ccc(CCC(=O)NC(C#N)c2ccc(Br)cc2)cc1OC (stereo not drawn) [(I-21)] | 100%
C#CCOc1ccc(CCC(=O)NCc2ccc(Cl)cc2)cc1OCC [(I-12), N-(4-chlorobenzyl)-3-{3-ethoxy-4-(2-propionyloxy)phenyl}pro panamide] | 100%
C#CCOc1ccc(CCC(=O)NCc2ccc(Br)cc2)cc1OC [(I-18)] | 100%
C#CCOc1ccc(CCC(=O)NC(C#N)c2ccc3c(c2)CCCC3)cc1OC (stereo not drawn) [(I-27), N-{1-(5,6,7,8-tetrahydronaphthalene-2-yl)-1-cyanomethyl}-3-(3-methoxy-4-(2-propyonyloxy)phenyl)propanamide] | 100%
